Test results as given in patent US20130096067A1, “DROSOPHILA TUMOR STEM CELL MODEL AND USES THEREOF” (priority 2011, published 2013).
Structures can show the parent of a compound that is named as a salt. Peptide text beside a SMILES is read from it. * marks the point of attachment. Cbz = O=C(OCc1ccccc1)*

Key:
[1] = test system: Raf-1^gof intestinal tumors; test: Luciferase screen of FDA-approved (NCI) drugs in 96-well plates, flies with Raf-1^gof intestinal tumors; assay type: in vivo, Drosophila; on Avg (3 + 6): test concentration or dose not given here; on Log2 (fold): test concentration or dose not given here
[2] = test system: Raf-1^gof intestinal tumors; settings: assessed three days later; for Log2 (fold) of luciferase activity relative to DMSO controls / Fold (luciferase activity relative to DMSO controls): ICCB compounds fed in vials to flies with one-day old Raf-1^gof tumors; for Fold (luciferase activity relative to DMSO controls) / Fold (luciferase activity, fold difference relative to DMSO controls): averaged from multiple wells; for Log2 (fold) (luciferase activity, log2 of the fold difference relative to DMSO controls) / Fold (luciferase activity, fold difference relative to DMSO controls): screen of 480 ICCB compounds in vials, compounds fed to flies with one-day old Raf-1^gof tumors, esg-Gal4 luciferase; on all read-outs here: test concentration or dose not given here
[3] = average of Day 3 and Day 6 fold
[4] = log2 of the Day 3 fold difference in luciferase relative to DMSO controls
[5] = luciferase activity relative to DMSO controls, single dose of drug for three days, 96-well plates
[6] = six-day protocol: single dose for three days, then another dose for three more days

Row | SMILES | Avg (3 + 6) [1, 3] | Log2 (fold) [1, 4] | Day 3 Fold [1, 5] | Day 6 Fold [1, 6] | further results
1 | O=C(c1ccc(OCCN2CCCCC2)cc1)c1c(-c2ccc(O)cc2)sc2cc(O)ccc12 [Raloxifene HCl] | 1.100 fold | 0.337 | 1.263 fold | 0.936 fold | 
2 | Nc1nc2[nH]cc(CCc3ccc(C(=O)N[C@@H](CCC(=O)O)C(=O)O)cc3)c2c(=O)[nH]1 [Pemetrexed] | 0.365 fold | −0.783 | 0.581 fold | 0.149 fold | 
3 | CCc1c2c(nc3ccc(OC(=O)N4CCC(N5CCCCC5)CC4)cc13)-c1cc3c(c(=O)n1C2)COC(=O)[C@]3(O)CC [Irinotecan HCl] |  |  |  |  | Avg (3 + 6) ([1]; in vivo): 0.705 fold; Day 3 Fold ([1]; in vivo): 0.870 fold; Day 6 Fold ([1]; in vivo): 0.541 fold; Log2 (fold) ([1]; in vivo): −0.201
4 | NCCCNCCSP(=O)(O)O [Amifostine] | 1.239 fold | 0.248 | 1.187 fold | 1.291 fold | 
5 | CCCCC(=O)OCC(=O)[C@]1(O)Cc2c(O)c3c(c(O)c2[C@@H](O[C@H]2C[C@H](NC(=O)C(F)(F)F)[C@H](O)[C@H](C)O2)C1)C(=O)c1c(OC)cccc1C3=O [Valrubicin] | 0.778 fold | −0.190 | 0.876 fold | 0.679 fold | 
6 | CCN(CC)CCNC(=O)c1c(C)[nH]c(/C=C2\C(=O)Nc3ccc(F)cc32)c1C [Sunitinib] | 0.816 fold | −0.243 | 0.845 fold | 0.788 fold | 
7 | Nc1nc(Cl)nc2c1ncn2[C@H]1C[C@H](O)[C@@H](CO)O1 [Cladribine] | 0.852 fold | 0.072 | 1.051 fold | 0.652 fold | 
8 | CC(C)Cn1cnc2c(N)nc3ccccc3c21 [Imiquimod] | 0.888 fold | 0.086 | 1.061 fold | 0.715 fold | 
9 | CC(=O)O[C@@]12CO[C@@H]1C[C@H](O)[C@@]1(C)C(=O)[C@H](O)C3=C(C)[C@@H](OC(=O)[C@H](O)[C@@H](NC(=O)OC(C)(C)C)c4ccccc4)C[C@@](O)([C@@H](OC(=O)c4ccccc4)[C@H]21)C3(C)C [Docetaxel] | 0.514 fold | −0.887 | 0.541 fold | 0.487 fold | 
10 | NCC(=O)CCC(=O)O [Aminolevulinic acid] | 0.897 fold | −0.016 | 0.989 fold | 0.805 fold | 
11 | COc1cc2ncnc(Nc3ccc(F)c(Cl)c3)c2cc1OCCCN1CCOCC1 [Gefitinib] |  |  |  |  | Avg (3 + 6) ([1]; in vivo): 0.886 fold
12 | N[C@@H](Cc1ccc(N(CCCl)CCCl)cc1)C(=O)O [Melphalan] | 0.939 fold | 0.001 | 1.001 fold | 0.876 fold | 
13 | C#Cc1cccc(Nc2ncnc3cc(OCCOC)c(OCCOC)cc23)c1 [Erlotinib HCl] |  |  |  |  | Avg (3 + 6) ([1]; in vivo): 0.986 fold; Day 3 Fold ([1]; in vivo): 1.030 fold; Day 6 Fold ([1]; in vivo): 0.942 fold; Log2 (fold) ([1]; in vivo): 0.042
14 | CS(=O)(=O)CCNCc1ccc(-c2ccc3ncnc(Nc4ccc(OCc5cccc(F)c5)c(Cl)c4)c3c2)o1 [Lapatinib] | 0.976 fold | −0.097 | 0.935 fold | 1.017 fold | 
15 | Nc1ccn([C@@H]2O[C@H](CO)[C@@H](O)C2(F)F)c(=O)n1 [Gemcitabine HCl] | 0.104 fold | −2.666 | 0.158 fold | 0.051 fold | 
16 | O=P1(N(CCCl)CCCl)NCCCO1 (centres unmarked) [Cyclophosphamide] |  |  |  |  | Avg (3 + 6) ([1]; in vivo): 0.857 fold; Day 3 Fold ([1]; in vivo): 0.982 fold; Day 6 Fold ([1]; in vivo): 0.732 fold; Log2 (fold) ([1]; in vivo): −0.025
17 | O=NN(CCCl)C(=O)NC1CCCCC1 [Lomustine, CCNU, Lomustine] | 0.712 fold |  |  |  | Day 3 Fold ([1]; po, 72 h): 0.651 fold; Log2 (fold) ([1]; po, 72 h): −0.619
18 | CC[C@]1(O)C[C@H]2CN(CCc3c([nH]c4ccccc34)[C@@](C(=O)OC)(c3cc4c(cc3OC)N(C=O)[C@H]3[C@@](O)(C(=O)OC)[C@H](OC(C)=O)[C@]5(CC)C=CCN6CC[C@]43[C@@H]65)C2)C1 [Vincristine sulfate] | 0.314 fold | −2.100 | 0.233 fold | 0.394 fold | 
19 | S=c1nc[nH]c2nc[nH]c12 [Mercaptopurine] | 0.945 fold | 0.101 | 1.072 fold | 0.818 fold | 
20 | N.N.[Cl][Pt][Cl] [Cisplatin] | 1.113 fold | 0.145 | 1.106 fold | 1.120 fold | 

Row | SMILES | Avg (3 + 6) [1, 3] | Log2 (fold) [1, 4] | Day 3 Fold [1, 5] | Day 6 Fold [1, 6] | further results
21 | CCCCCCCCCCCCCCCCCCc1ccc(C(=O)/C=C/C(=O)O)cc1 [OBAA] |  |  |  |  | Log2 (fold) of luciferase activity relative to DMSO controls [2]: −0.169; Fold (luciferase activity relative to DMSO controls) [2]: 0.890 fold
22 | CCCCc1oc2ccccc2c1C(=O)c1cc(I)c(OCCN(CC)CC)c(I)c1 [AMIODARONE] |  |  |  |  | Log2 (fold) of luciferase activity relative to DMSO controls [2]: 0.102; Fold (luciferase activity relative to DMSO controls) [2]: 1.074 fold
23 | Clc1ccc2ncnc(NCc3ccc4c(c3)OCO4)c2c1 [MBCQ] |  |  |  |  | Log2 (fold) of luciferase activity relative to DMSO controls [2]: 0.195; Fold (luciferase activity relative to DMSO controls) [2]: 1.145 fold
24 | Cn1c2ccccc2c2c3c(c4c5ccccc5n(CCC#N)c4c21)CNC3=O [Go6976] |  |  |  |  | Log2 (fold) (luciferase activity, log2 of the fold difference relative to DMSO controls) [2]: −0.287; Fold (luciferase activity, fold difference relative to DMSO controls) [2]: 0.819
25 | CCCCC/C=C\C/C=C\C/C=C\C/C=C\CCCC(=O)O[C@H](COCCCCCCCCCCCCCCCC)COP(=O)([O-])OCC[N+](C)(C)C [ARACHIDONOYL-PAF] |  |  |  |  | Log2 (fold) (luciferase activity, log2 of the fold difference relative to DMSO controls) [2]: −0.439; Fold (luciferase activity, fold difference relative to DMSO controls) [2]: 0.738
26 | C=C[C@H]1C[N@@]2CC[C@H]1C[C@H]2[C@H](O)c1ccnc2ccc(OC)cc12 [QUININE] |  |  |  |  | Log2 (fold) of luciferase activity relative to DMSO controls [2]: −0.201; Fold (luciferase activity relative to DMSO controls) [2]: 0.870 fold
27 | Cc1c(C(=O)NN2CCCCC2)nn(-c2ccc(Cl)cc2Cl)c1-c1ccc(I)cc1 [AM-251] |  |  |  |  | Log2 (fold) of luciferase activity relative to DMSO controls [2]: 0.065; Fold (luciferase activity relative to DMSO controls) [2]: 1.046 fold
28 | CCCCCCOC(=O)[C@]1(O)C[C@@H]2O[C@@]1(C)n1c3ccccc3c3c4c(c5c6ccccc6n2c5c31)C(=O)NC4 [KT-5720] |  |  |  |  | Log2 (fold) (luciferase activity, log2 of the fold difference relative to DMSO controls) [2]: −0.246; Fold (luciferase activity, fold difference relative to DMSO controls) [2]: 0.843
29 | CC[C@@H]1/C=C(\C)C[C@H](C)C[C@H](OC)[C@H]2O[C@@](O)(C(=O)C(=O)N3CCCC[C@H]3C(=O)O[C@H](/C(C)=C/[C@@H]3CC[C@@H](O)[C@H](OC)C3)[C@H](C)[C@@H](O)CC1=O)[C@H](C)C[C@@H]2OC [ascomycin (FK-520)] |  |  |  |  | Log2 (fold) of luciferase activity relative to DMSO controls [2]: −0.035; Fold (luciferase activity relative to DMSO controls) [2]: 0.976 fold
30 | CCCCC[C@H](O)/C=C/[C@H]1C(=O)C[C@H](O)[C@@H]1C/C=C\CCCC(=O)O [PROSTAGLANDIN D2] |  |  |  |  | Log2 (fold) (luciferase activity, log2 of the fold difference relative to DMSO controls) [2]: −0.413; Fold (luciferase activity, fold difference relative to DMSO controls) [2]: 0.751
31 | COc1ccc(C2CNC(=O)C2)cc1OC1CCCC1 (centres unmarked) [Rolipram] |  |  |  |  | Log2 (fold) (luciferase activity, log2 of the fold difference relative to DMSO controls) [2]: −0.414; Fold (luciferase activity, fold difference relative to DMSO controls) [2]: 0.750
32 | CN(C)CCCn1cc(C2=C(c3c[nH]c4ccccc34)C(=O)NC2=O)c2ccccc21 [GF-109203X] |  |  |  |  | Log2 (fold) (luciferase activity, log2 of the fold difference relative to DMSO controls) [2]: −0.238; Fold (luciferase activity, fold difference relative to DMSO controls) [2]: 0.848
33 | CNC(=O)[C@H](Cc1c[nH]c2ccccc12)NC(=O)[C@@H](CC(=O)NO)CC(C)C [GM6001] |  |  |  |  | Log2 (fold) of luciferase activity relative to DMSO controls [2]: 0.173; Fold (luciferase activity relative to DMSO controls) [2]: 1.128 fold
34 | O=C(O)c1ccc(/C2=C3\C=CC(=N3)/C(c3ccc(C(=O)O)cc3)=c3/cc/c4[n]3[Mn]([Cl])[n]3c2ccc3/C(c2ccc(C(=O)O)cc2)=C2/C=CC(=N2)\C=4c2ccc(C(=O)O)cc2)cc1 [MnTBAP] |  |  |  |  | Log2 (fold) (luciferase activity, log2 of the fold difference relative to DMSO controls) [2]: −0.245; Fold (luciferase activity, fold difference relative to DMSO controls) [2]: 0.844
35 | COc1ccc(CCCOC(Cn2ccnc2)c2ccc(OC)cc2)cc1 (centres unmarked) [SKF-96365] |  |  |  |  | Log2 (fold) of luciferase activity relative to DMSO controls [2]: 0.134; Fold (luciferase activity relative to DMSO controls) [2]: 1.097 fold
36 | CC(C)C[C@@H](C=O)NC(=O)[C@H](CC(C)C)NC(=O)[C@H](CC(C)C)NC(=O)OCc1ccccc1 [MG-132] (Cbz-Leu-Leu-Leu-aldehyde) |  |  |  |  | Log2 (fold) of luciferase activity relative to DMSO controls [2]: 0.097; Fold (luciferase activity relative to DMSO controls) [2]: 1.070 fold
37 | O=c1oc(Cl)c(Cl)c2ccccc12 [3,4-dichloroisocoumarin] |  |  |  |  | Log2 (fold) (luciferase activity, log2 of the fold difference relative to DMSO controls) [2]: −0.772; Fold (luciferase activity, fold difference relative to DMSO controls) [2]: 0.586
38 | C=CC[C@@H]1/C=C(\C)C[C@H](C)C[C@H](OC)[C@H]2O[C@@](O)(C(=O)C(=O)N3CCCC[C@H]3C(=O)O[C@H](/C(C)=C/[C@@H]3CC[C@@H](O)[C@H](OC)C3)[C@H](C)[C@@H](O)CC1=O)[C@H](C)C[C@@H]2OC [FK-506] |  |  |  |  | Log2 (fold) (luciferase activity, log2 of the fold difference relative to DMSO controls) [2]: −0.699; Fold (luciferase activity, fold difference relative to DMSO controls) [2]: 0.616
39 | CC(C)(C)c1cc(C=C(C#N)C#N)cc(C(C)(C)C)c1O [tyrphostin 9] |  |  |  |  | Log2 (fold) of luciferase activity relative to DMSO controls [2]: 0.671; Fold (luciferase activity relative to DMSO controls) [2]: 1.592 fold
40 | CCCCC[C@H](O)/C=C/[C@H]1[C@H](O)CC(=O)[C@@H]1CCCCCCC(=O)O [PROSTAGLANDIN E1] |  |  |  |  | Log2 (fold) (luciferase activity, log2 of the fold difference relative to DMSO controls) [2]: −0.561; Fold (luciferase activity, fold difference relative to DMSO controls) [2]: 0.678
